Assay results as given in patent publication US20200208108A1, “INTERFERON PRIMED PLASMACYTOID DENDRITIC CELLS” (AARHUS UNIVERSITET, priority 2017, published 2020).

Tests used:
Assay type in all cases: cell-based, human
[1] = test system: HSPC-pDCs; assay: Phenotypic analysis of pDC-related and maturation surface markers by flow cytometry; conditions: priming from day 21, with IL-3
Experimental: (§1) HSPC-pDCs were cultured in RPMI-1640 medium with 10% heat inactivated FCS, 600 μg/mL L-glutamine, 200 U/mL penicillin and 100 μg/mL streptomycin, but depleted for growth factors used for the cultivation process. As described in individual figure legends, medium was supplemented with IFN-β (PBL Assay Science), IFN-γ (PeproTech) or both cytokines simultaneously (IFN-β+γ). After 24 (day 21+1) or 72 (day 21+3) hours, cells were washed in warm medium, and phenotypically or functionally characterized.
(§2) For functional characterization, cells were seeded in 96-well plates. During stimulation cells were kept in medium with 20 ng/mL IL-3. Twenty hours post stimulation supernatants were harvested and kept at −20° C. until cytokine quantifications. For phenotypic characterization, primed cells were seeded out in 48-well plates and stimulated for 24 hours before phenotypic analysis by flow cytometry.
Immunophenotypical analysis was performed using flow cytometry. Briefly, 2×10^5 cells were spun down and resuspended in PBS with 0.5% BSA and 0.09% NaN3. […] Fluorescence intensities were measured on a LSR Fortessa flow cytometer (Becton Dickinson) with four lasers (405, 488, 561 and 640 nm) and 18 photomultiplier (PMT) detectors. […] Data were analyzed using FlowJo software (version 10, Tree Star, Ashland, Oreg., USA). […]

[2] = test system: HSPC-pDCs; assay: Functional type I IFN in supernatants after TLR7/TLR9 agonist stimulation (HEK-Blue IFN-α/β reporter); conditions: separate priming; TLR7 and TLR9 agonists
Experimental: as §1, §2
Bioactive functional type I IFN was quantified in supernatants using the reporter cell line HEK-Blue™ IFN-α/β (Invivogen). The cell line was maintained in DMEM+GlutaMax™-I (Gibco®, Life Technologies), supplemented with 10% heat-inactivated FCS, 100 μg/mL streptomycin and 200 U/mL penicillin, 100 μg/mL normocin (InvivoGen), 30 μg/mL blasticidin (InvivoGen) and 100 μg/mL zeocin (InvivoGen). […] SEAP activity was assessed by measuring optical density (OD) at 620 nm on a microplate reader (ELx808, BioTEK). […]

[3] = test system: HSPC-pDCs; assay: IL-6 in supernatants after TLR7/TLR9 agonist stimulation (ELISA); conditions: separate priming; TLR7 and TLR9 agonists
Experimental: as §1, §2
Protein levels of IL-6 in supernatants were evaluated using ELISA kits (Biolegend) following the manufacturers instructions.

Substance: IFN-γ: recombinant IFN-γ (PeproTech) used for priming
- expression levels of CD303 and CD304 on HSPC-pDCs after priming [1]: improved
- promotion of type I IFN response in comparison to IFN-β [2]: less effective
- secretion of IL-6 by primed HSPC-pDCs [3]: predominantly promoted
